Laboratory results: PubChem BioAssay (NCI)
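Interpolation was linear, between the two tested concentrations surrounding the appropriate level; five concentrations were tested over 48 hours in 96-well plates. TGI is the concentration that stops growth completely.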

Columns and labels:
Assay in all cases: growth of human tumour cells (NCI), 48 h
K-562 leukemia = tested on: K-562 leukemia
KM12 colon = tested on: KM12 colon
HCT-15 colon = tested on: HCT-15 colon
NCI-H23 lung = tested on: NCI-H23 lung
A549 NSCLC = tested on: A549 NSCLC
SNB-75 CNS = tested on: SNB-75 CNS
SK-MEL-5 melanoma = tested on: SK-MEL-5 melanoma
UACC-257 melanoma = tested on: UACC-257 melanoma
MALME-3M melanoma = tested on: MALME-3M melanoma
OVCAR-5 ovarian = tested on: OVCAR-5 ovarian
SK-OV-3 ovarian = tested on: SK-OV-3 ovarian
CCRF-CEM leukemia = tested on: CCRF-CEM leukemia
MDA-MB-435 = tested on: MDA-MB-435
SF-295 CNS = tested on: SF-295 CNS
HCT-116 colon = tested on: HCT-116 colon
A498 renal = tested on: A498 renal
MCF7 breast = tested on: MCF7 breast
TK-10 renal = tested on: TK-10 renal
BT-549 breast = tested on: BT-549 breast
UACC-62 melanoma = tested on: UACC-62 melanoma
MOLT-4 leukemia = tested on: MOLT-4 leukemia
COLO 205 colon = tested on: COLO 205 colon
HOP-92 NSCLC = tested on: HOP-92 NSCLC
MDA-N = tested on: MDA-N
IGROV1 ovarian = tested on: IGROV1 ovarian
NCI-H226 lung = tested on: NCI-H226 lung
MDA-MB-231 breast = tested on: MDA-MB-231 breast
OVCAR-8 ovarian = tested on: OVCAR-8 ovarian
SNB-19 CNS = tested on: SNB-19 CNS
SF-539 CNS = tested on: SF-539 CNS
U251 CNS = tested on: U251 CNS
SN12C renal = tested on: SN12C renal
786-0 renal = tested on: 786-0 renal
LOX IMVI melanoma = tested on: LOX IMVI melanoma
EKVX NSCLC = tested on: EKVX NSCLC
NCI-H522 lung = tested on: NCI-H522 lung
SK-MEL-28 melanoma = tested on: SK-MEL-28 melanoma
SW-620 colon = tested on: SW-620 colon
M14 melanoma = tested on: M14 melanoma
NCI/ADR-RES ovarian = tested on: NCI/ADR-RES ovarian
DU-145 prostate = tested on: DU-145 prostate
RPMI-8226 leukemia = tested on: RPMI-8226 leukemia
HL-60(TB) leukemia = tested on: HL-60(TB) leukemia
ACHN renal = tested on: ACHN renal
OVCAR-4 ovarian = tested on: OVCAR-4 ovarian
HCC-2998 colon = tested on: HCC-2998 colon
UO-31 renal = tested on: UO-31 renal
SR leukemia = tested on: SR leukemia
NCI-H460 lung = tested on: NCI-H460 lung
CAKI-1 renal = tested on: CAKI-1 renal
RXF 393 renal = tested on: RXF 393 renal
PC-3 prostate = tested on: PC-3 prostate
SK-MEL-2 melanoma = tested on: SK-MEL-2 melanoma
HOP-62 NSCLC = tested on: HOP-62 NSCLC
OVCAR-3 ovarian = tested on: OVCAR-3 ovarian
SF-268 CNS = tested on: SF-268 CNS
HT29 colon = tested on: HT29 colon
T-47D breast = tested on: T-47D breast

Measured: TGI

Cc1ccc(S(=O)(=O)Nn2c(S)c(C#N)c(-c3ccc(N(C)C)cc3)c(C#N)c2=O)cc1
91.5 µM: RPMI-8226 leukemia
> 100 µM: K-562 leukemia | A549 NSCLC | SNB-75 CNS | UACC-257 melanoma | OVCAR-5 ovarian | SK-OV-3 ovarian | CCRF-CEM leukemia | SF-295 CNS | MCF7 breast | UACC-62 melanoma | MOLT-4 leukemia | HOP-92 NSCLC | MDA-N | MDA-MB-231 breast | SNB-19 CNS | 786-0 renal | LOX IMVI melanoma | EKVX NSCLC | M14 melanoma | DU-145 prostate | ACHN renal | HCC-2998 colon | SR leukemia | CAKI-1 renal
37.8 µM: NCI-H522 lung
80.6 µM: MALME-3M melanoma | A498 renal
79.6 µM: HL-60(TB) leukemia
40.7 µM: SF-539 CNS
77.4 µM: SK-MEL-28 melanoma
38.5 µM: IGROV1 ovarian
34.6 µM: NCI-H226 lung
76.2 µM: TK-10 renal
88.3 µM: RXF 393 renal
56.5 µM: HCT-15 colon
44.9 µM: OVCAR-8 ovarian
61.1 µM: NCI-H23 lung
97.2 µM: NCI/ADR-RES ovarian
90.5 µM: HCT-116 colon
52.2 µM: KM12 colon
67.3 µM: BT-549 breast
37.7 µM: SW-620 colon
67.8 µM: COLO 205 colon
44.8 µM: UO-31 renal
45.3 µM: SK-MEL-5 melanoma
60 µM: MDA-MB-435
43.1 µM: OVCAR-4 ovarian
39.3 µM: NCI-H460 lung
68.2 µM: SN12C renal
55.6 µM: U251 CNS

CCc1nnc(CC)n1N1C(=O)CCC1=O
> 100 µM: K-562 leukemia | KM12 colon | HCT-15 colon | NCI-H23 lung | A549 NSCLC | SNB-75 CNS | SK-MEL-5 melanoma | UACC-257 melanoma | OVCAR-5 ovarian | SK-OV-3 ovarian | PC-3 prostate | CCRF-CEM leukemia | MDA-MB-435 | SF-295 CNS | HCT-116 colon | SK-MEL-2 melanoma | MCF7 breast | TK-10 renal | BT-549 breast | UACC-62 melanoma | MOLT-4 leukemia | COLO 205 colon | HOP-92 NSCLC | HOP-62 NSCLC | MDA-N | OVCAR-3 ovarian | IGROV1 ovarian | MDA-MB-231 breast | OVCAR-8 ovarian | SNB-19 CNS | SF-539 CNS | U251 CNS | SN12C renal | 786-0 renal | LOX IMVI melanoma | EKVX NSCLC | NCI-H522 lung | SF-268 CNS | HT29 colon | SK-MEL-28 melanoma | SW-620 colon | M14 melanoma | NCI/ADR-RES ovarian | DU-145 prostate | RPMI-8226 leukemia | ACHN renal | OVCAR-4 ovarian | HCC-2998 colon | UO-31 renal | SR leukemia | RXF 393 renal

CCCCCCCCCCCCCCCCCCOP1(=O)OCCO1
75.4 µM: RXF 393 renal
> 100 µM: K-562 leukemia | KM12 colon | HCT-15 colon | NCI-H23 lung | A549 NSCLC | SNB-75 CNS | SK-MEL-5 melanoma | UACC-257 melanoma | MALME-3M melanoma | OVCAR-5 ovarian | SK-OV-3 ovarian | CCRF-CEM leukemia | MDA-MB-435 | SF-295 CNS | HCT-116 colon | SK-MEL-2 melanoma | A498 renal | MCF7 breast | TK-10 renal | UACC-62 melanoma | T-47D breast | MOLT-4 leukemia | COLO 205 colon | HOP-92 NSCLC | HOP-62 NSCLC | MDA-N | OVCAR-3 ovarian | IGROV1 ovarian | NCI-H226 lung | MDA-MB-231 breast | OVCAR-8 ovarian | SNB-19 CNS | SF-539 CNS | U251 CNS | SN12C renal | 786-0 renal | LOX IMVI melanoma | EKVX NSCLC | NCI-H522 lung | HT29 colon | SK-MEL-28 melanoma | SW-620 colon | M14 melanoma | NCI/ADR-RES ovarian | DU-145 prostate | RPMI-8226 leukemia | ACHN renal | OVCAR-4 ovarian | HCC-2998 colon | UO-31 renal | CAKI-1 renal
83.9 µM: PC-3 prostate
75.3 µM: HL-60(TB) leukemia
